According to patent US20250325508A1, “MODULATORS OF PROTEASOME DYNAMICS AND/OR FUNCTION, COMPOSITIONS, METHODS, AND THERAPEUTIC USES THEREOF” (TECHNION RESEARCH & DEVELOPMENT FOUNDATION LIMITED, priority 2022, published 2025):

Assays:
HeLa cells [1] = assay: Amino acids level measurement (LC-MS); assay type: cell-based, human
Procedure: Metabolic analysis was carried out as previously described [G. M. MacKay et al., 1st Ed. (Elsevier Inc., 2015)]. Briefly, cells were rapidly washed 3 times with ice-cold PBS and extracted with an aqueous solution of 50% Methanol, and 30% Acetonitrile. Samples were centrifuged at 16,000×g for 10 min at 4° C., and the supernatants were analyzed using HPLC-MS (Q-Exactive Orbitrap Mass Spectrometer (Thermo Scientific) coupled to Thermo Scientific UltiMate 3000 HPLC system). The HPLC setup consisted of a ZIC-PHILIC column (SeQuant, 150×2.1 mm, 5 μm, Merck) with a ZIC-PHILIC guard column (SeQuant, 20×2.1 mm). The aqueous mobile phase solvent was 20 mM ammonium carbonate adjusted to pH 9.4 with 0.1% ammonium hydroxide. The organic mobile phase was acetonitrile. Amino acids and other metabolites were separated over a 15 min linear gradient from 80% organic to 80% aqueous. The column temperature was 45° C., the flow rate 200 μl/min, and the run time 27 min. All metabolites were detected across a mass range of 75-1,000 m/z using the Q-Exactive mass spectrometer at a resolution of 35,000 (at 200 m/z) with electrospray ionization and polarity switching mode. Mass accuracy obtained for all metabolites was below 5 ppm. Data were acquired with Thermo Xcalibur software. The peak areas of different amino acids were determined using Thermo TraceFinder software through which metabolites were identified by the exact mass of the singly charged ion and the known retention time on the HPLC column. Commercially available standard compounds had been analyzed before to determine ion masses and retention times on the ZIC-PHILIC column. Protein quantitation based on the Lowry method was performed for normalization. The figure presents mean+/−SD of three replicates.

proteasome [2] = assay: Mass spectrometric analysis of proteasome sub-complexes' composition (assembly); assay type: cell-based, human; conditions: starvation plus substance
Procedure: Analysis of proteasome assembly and sub-complex composition was performed using the MCP20 antibody against the α6 proteasome subunit, as previously described using the MCP21 antibody against α2 [B. Fabre et al., Mol. Cell. Proteomics 12, 687-699 (2013)]. Briefly, following the indicated treatments, cell lysates were immunoprecipitated using the α6 antibody, and the precipitates were subjected to proteomic mass spectrometry. Intensities of the different proteasomal subunits were normalized according to the median of intensities measured for all 20S subunits. Ratios were calculated for each condition relative to untreated cells (control). The color scale represents Log 2 fold-change.

HeLa cells [3] = assay: Degradation of radiolabeled proteins; assay type: cell-based, human; conditions: short-term starvation
Procedure: Cells were labeled with [^35S]-methionine and cysteine (20 μCi/ml) for 16 h. This was followed by extensive washing and further incubation in a medium containing 2 mM of the two unlabeled amino acids for 8 h. Degradation rates were assessed by determining the release of labeled amino acids to the incubation medium relative to the radioactivity remained in the cellular proteins (using Trichloroacetic acid precipitation to separate between the two) [R. Gropper et al., Biomed Biochim Acta 50, 321-332 (1991)]. The figure presents mean+/−SD and Student's T-Test p-values of three replicates.

proteasome [4] = assay: Live imaging of proteasome activity probe Me4BodipyFL-Ahx3Leu3VS; assay type: cell-based, human; conditions: addition to the starvation medium, HeLa cells
Procedure: Live cell proteasome activity was followed as previously described [C. R. Berkers et al., Mol Pharm 4, 739-748 (2007)]. In brief, Me4BodipyFL-Ahx3Leu3VS was added to the medium to a final concentration of 1 μM. Following incubation for 15 min, the cells were visualized by a Zeiss LSM 700 confocal microscope. In vitro proteasome activity assay was carried out as previously described [O. Braten et al., Proc. Natl. Acad. Sci. 113, E4639-47 (2016)]. In brief, cellular fractions were incubated at 37° C. for 30 min with 5 μM Suc-LLVY-AMC (Succinyl-Leu-Leu-Val-Tyr-amido-4-methylcoumarin) in a reaction buffer (40 mM Tris-HCl pH 7.2, 2 mM DTT, 5 mM MgCl2, 10 mM creatine phosphate, 0.1 mg/ml creatine phosphate kinase, 5 mM ATP). Reactions were stopped by adding 1% SDS, and fluorescence was measured at 360/460 nm (ex/em).

26S proteasome = assay: Proteasome subcellular localization in cultured cells (immunofluorescence, cell fractionation/Western blot); assay type: cell-based, human
Procedure: Cells were incubated for 20 min in fractionation buffer [20 mM HEPES pH 7.3, 10 mM KCl, 5 mM ATP, 5 mM MgCl2, and protease inhibitor cocktail (Roche)], followed by the addition of Digitonin (0.01%). They were then mixed thoroughly and centrifuged at 1,000×g for 5 min. The supernatant was collected as cytosolic fraction, and the pellet was washed with fractionation buffer supplemented with NP-40 (0.05%) and centrifuged, and the pellet (nuclei) was resuspended in fractionation buffer supplemented with sodium deoxycholate (0.5%), followed by its sonication.
Cells were washed twice with ice cold PBS and scraped into lysis buffer (50 mM Tris-HCl, pH 7.4, 130 mM NaCl, 0.5% NP-40) supplemented with freshly added protease inhibitor cocktail, 5 mM ATP, 10 mM iodoacetamide, and 5 mM N-ethyl maleimide. Protein concentration was measured by the BCA assay according to the manufacturer's instructions (Pierce, Rockford, IL). 30 μg of cellular protein were resolved via SDS-PAGE, transferred to a nitrocellulose membrane and immunoblotted with the appropriate antibody.
Cells were seeded on glass cover slips for 36 h. Following the indicated treatments, they were fixed with 4% PFA for 15 min, washed with phosphate-buffered saline (PBS) and incubated in PBS containing 10% goat serum for 1 h at room temperature, followed by 2 h incubation with the indicated primary antibody. Following extensive wash with PBS, the fixed cells were incubated with the relevant secondary antibody for 1 h, washed and mounted. Images were acquired using Zeiss LSM 700 confocal microscope (Zeiss, Oberkochen, Germany). […]

exportin1 = molecular target: T1, exportin1 (Homo sapiens, UniProt O14980); assay: Localization of exportin1 substrates (p65, APC, NES-GFP); assay type: cell-based; conditions: HeLa cells
T1 construct: endogenous in cells; host or cells: HeLa
T1 sequence (O14980 whole entry): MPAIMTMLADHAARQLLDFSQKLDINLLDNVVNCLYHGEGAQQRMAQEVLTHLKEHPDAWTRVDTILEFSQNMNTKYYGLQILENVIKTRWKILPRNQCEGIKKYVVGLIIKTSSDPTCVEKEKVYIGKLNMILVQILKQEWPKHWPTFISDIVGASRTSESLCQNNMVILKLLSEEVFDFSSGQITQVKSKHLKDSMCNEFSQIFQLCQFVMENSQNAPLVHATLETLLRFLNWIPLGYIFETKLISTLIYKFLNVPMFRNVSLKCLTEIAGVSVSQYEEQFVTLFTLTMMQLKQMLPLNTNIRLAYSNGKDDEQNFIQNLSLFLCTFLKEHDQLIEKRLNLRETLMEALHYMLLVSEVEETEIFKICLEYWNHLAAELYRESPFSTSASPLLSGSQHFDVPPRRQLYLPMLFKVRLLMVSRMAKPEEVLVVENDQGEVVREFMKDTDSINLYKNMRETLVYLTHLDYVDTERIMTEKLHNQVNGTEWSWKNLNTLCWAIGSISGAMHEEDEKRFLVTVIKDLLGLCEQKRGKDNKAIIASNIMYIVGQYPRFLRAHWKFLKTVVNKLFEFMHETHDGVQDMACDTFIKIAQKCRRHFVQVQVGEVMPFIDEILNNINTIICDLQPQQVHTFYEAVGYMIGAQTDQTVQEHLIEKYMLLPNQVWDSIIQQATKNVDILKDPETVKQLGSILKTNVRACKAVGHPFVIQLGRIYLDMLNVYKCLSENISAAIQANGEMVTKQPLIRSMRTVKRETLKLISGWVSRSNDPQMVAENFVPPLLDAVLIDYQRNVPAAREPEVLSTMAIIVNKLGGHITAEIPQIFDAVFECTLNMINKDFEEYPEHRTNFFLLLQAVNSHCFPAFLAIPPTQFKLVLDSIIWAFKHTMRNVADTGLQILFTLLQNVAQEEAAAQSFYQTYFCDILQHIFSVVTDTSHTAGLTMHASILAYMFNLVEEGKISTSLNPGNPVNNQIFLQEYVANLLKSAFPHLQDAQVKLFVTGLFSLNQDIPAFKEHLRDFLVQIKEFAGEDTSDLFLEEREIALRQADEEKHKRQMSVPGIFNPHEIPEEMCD
Procedure: Cells were seeded on glass cover slips for 36 h. Following the indicated treatments, they were fixed with 4% PFA for 15 min, washed with phosphate-buffered saline (PBS) and incubated in PBS containing 10% goat serum for 1 h at room temperature, followed by 2 h incubation with the indicated primary antibody. Following extensive wash with PBS, the fixed cells were incubated with the relevant secondary antibody for 1 h, washed and mounted. Images were acquired using Zeiss LSM 700 confocal microscope (Zeiss, Oberkochen, Germany).

CCC(=C/[C@H](C)C/C=C/C(C)=C/[C@@H](C)C(=O)[C@@H](C)[C@H](O)[C@@H](C)C/C(C)=C/C(=O)O)/C=C/[C@@H]1OC(=O)C=C[C@@H]1C [Leptomycin B]
gain in amino acids produced by Torin1 (HeLa cells [1]; Torin1 plus LMB): significantly inhibited the gain in amino acids produced by Torin1
level of Glu (HeLa cells [1]; addition of LMB to Torin1-treated cells): unaffected
effect of stress on proteasome assembly (20S and 19S sub-complexes) (proteasome [2]): did not reverse the effect of stress on proteasome assembly
protein breakdown (degradation of radiolabeled proteins) (HeLa cells [3]): near annulment of protein breakdown stimulated by short-term starvation
localization of proteasomal activity (nucleus vs cytosol) (proteasome [4]): preventing the shift in its dominance from the nucleus to the cytosol
proteasome translocation from the nucleus to the cytosol (26S proteasome; amino acid starvation, substance added to starvation medium): inhibition of the translocation
proteasome localization (26S proteasome; non-stressed / well-fed cells, complete medium): nuclear accumulation of the proteasome
nuclear export/localization of exportin1 substrates p65 subunit of NF-κB and APC (exportin1): inhibited nuclear export of two known substrates of exportin1
localization of GFP fused to a nuclear export signal (NES) (exportin1; 8 h): nuclear accumulation of GFP fused to a nuclear export signal (NES)
